Measurements reported in patent publication US9801917B2, “Composition for improving blood sugar metabolism” (SUNSTAR INC., priority 2013, dated 2017).

Key:
[1] = system: mouse skeletal myotube cell line (C2C12 cells); assay: Measurement of sugar uptake-promoting activity (6-NBDG uptake) using skeletal myotube cells; format: cell-based; details: for sugar uptake-promoting activity (in words): 0.01 mass %, compared with extract C
Experimental: Mouse skeletal myoblasts (C2C12 cells) were cultured in high-glucose DMEM (5790), and the cells were seeded and cultured in a black microtiter plate (produced by Falcon) at a concentration of 5000 cells/200 μL/well. The cells differentiated into myotubes were used for this experiment. Extract A and extract C obtained in the above Production Example 1 and adjusted to final concentrations of 0.02% and 0.05% were used as samples (Examples 2-1 to 2-4). A medium without any addition (Comparative Example 2-1) was used as a negative control. A medium containing insulin (10 nM) (Comparative Example 2-2) was used as a positive control.
On the day of the experiment, after the media were replaced with low-glucose DMEM (6047), starvation was performed. The media were then replaced with media containing the samples of Examples 2-1 to 2-4 and Comparative Examples 2-1 to 2-2 dissolved therein, and incubation was performed for 60 minutes. After the treatment, the media were removed and replaced with low-glucose DMEM containing 100 μM of a fluorescently labeled nonhydrolyzable sugar analog, 6-(N-(7-nitrobenz-2-oxa-1,3-diazol-4-yl)amino)-6-deoxyglucose (6-NBDG; produced by Invitrogen) dissolved therein. After the reaction was allowed to proceed for 30 minutes, the medium was removed. After washing with PBS, the fluorescence was measured at 444 nm/538 nm emission using a fluorescent plate reader.
The sugar uptake-promoting activity, in skeletal myotube cells, of each of extract C (Example 3-1) obtained in the above Production Example 1, and fractions A to C and insoluble matter (Example 3-5) obtained in the above Production Example 2 (Examples 3-2 to 3-4) was measured in the same manner as in Test Example 1-2. Further, as in Test Example 1-2, a medium with no addition was used as a negative control (Comparative Example 3-1), and a medium containing insulin (10 nM) (Comparative Example 3-2) was used as a positive control. The samples of Examples 3-1 to 3-5 were adjusted to a final concentration of 0.02 mass %.
The sugar uptake-promoting activity, in skeletal myotube cells, of extract C obtained in the above Production Example 1 (Example 4-1) and seven compounds known to be contained in persimmon leaves (Example 4-2 to 4-8), i.e., kaempferol-3-O-glucoside, quercetin-3-O-glucoside, quercetin-3-O-galactoside, (+)-catechin, epigallocatechin gallate, rutin, and gallic acid was measured in the same manner as in Test Example 1-2. Further, as in Test Example 1-2, a medium with no addition was used as a negative control (Comparative Example 4-1), and a medium with insulin (10 nM) was used as a positive control (Comparative Example 4-2). The samples obtained in Example 4-1 to 4-8 were adjusted to a final concentration of 0.01 mass %.
The sugar uptake-promoting effects of extract C obtained in the above Production Example 1 (Example 5-1), fraction B obtained in the above Production Example 2 (Example 5-2), and fractions F to L (Examples 5-3 to 5-9) obtained in the above Production Example 3 on skeletal myotube cells were measured in the same manner as in Test Example 2. A medium with no addition was used as a negative control (Comparative Example 5-1), and media with insulin (10 nM) (Comparative Example 5-2), with insulin (100 nM) (Comparative Example 5-3), and with AICAR (final concentration: 3 mM) (Comparative Example 5-4) were used as positive controls. The samples of Examples 5-1 to 5-9 were adjusted to a final concentration of 0.02 mass %. […]

AMP kinase = assay: Measurement of AMP kinase phosphorylation activity (Western blot pAMPK/tAMPK) in C2C12 cells; format: cell-based, mouse; details: Test Example 1-1; positive control, final concentration 2 mM; relative value, negative control = 1
Experimental: Persimmon leaf extracts A to E (powders) that had been dissolved in media to a final concentration of 0.02% were used as samples (Examples 1-1 to 1-5). A medium without any addition was used as a negative control (Comparative Example 1-1). A medium containing AICAR (final concentration: 2 mM) was used as a positive control (Comparative Example 1-2). Subsequently, a mouse skeletal myotube cell line (C2C12 cells) was seeded onto a 6-well cell culture plate and cultured in a DMEM medium containing 10% fetal bovine serum and a 1% antibacterial agent at 37° C., 5% carbon dioxide for 3 days.
When the cells became confluent, the medium was replaced with a DMEM medium containing 1% fetal bovine serum, and the cells were further cultured and fully differentiated. After the medium was again replaced with a fresh medium, the samples of Examples 1-1 to 1-5 and Comparative Examples 1-1 to 1-2 were added, and the cells were cultured at 37° C., 5% carbon dioxide. […]
The cell lysate was sonicated and then centrifuged to obtain a supernatant. […] The protein concentration of each supernatant was measured. […]
Western blotting was performed in the following manner. […] Chemiluminescence was detected using a CCD camera imager (produced by GE Healthcare). The degree of the activity was expressed as a relative value with the value of the negative control being defined as 1.

[2] = Test Example 3, final concentration 0.01 mass %, control = 1.00

Compound: Oc1cc(O)c2c(c1)O[C@H](c1ccc(O)c(O)c1)[C@@H](O)C2 [(+)-catechin]
- Relative fluorescence intensity [1, 2]: 1.09

Compound: NC(=O)c1ncn([C@@H]2O[C@H](CO)[C@@H](O)[C@H]2O)c1N [AICAR]
- Relative fluorescence intensity ([1]; Test Example 4, positive control 3 mM, control = 1.00): 1.96
- pAMPK/tAMPK ratio (AMP kinase): 5.60

Compound: O=C(O[C@@H]1Cc2c(O)cc(O)cc2O[C@@H]1c1cc(O)c(O)c(O)c1)c1cc(O)c(O)c(O)c1 [Epigallocatechin gallate, epigallocatechin gallate]
- sugar uptake-promoting activity (in words) ([1]; Test Example 3): as high as Example 4-1
- Relative fluorescence intensity [1, 2]: 1.70

Compound: O=C(O)c1cc(O)c(O)c(O)c1 [Gallic acid, gallic acid]
- sugar uptake-promoting activity (in words) ([1]; Test Example 3): as high as Example 4-1
- Relative fluorescence intensity [1, 2]: 1.69

Compound: O=c1c(O[C@@H]2O[C@H](CO)[C@@H](O)[C@H](O)[C@H]2O)c(-c2ccc(O)cc2)oc2cc(O)cc(O)c12 [Kaempferol-3-glucoside, kaempferol-3-O-glucoside]
- Relative fluorescence intensity [1, 2]: 0.91

Compound: O=c1c(O[C@@H]2O[C@H](CO)[C@H](O)[C@H](O)[C@H]2O)c(-c2ccc(O)c(O)c2)oc2cc(O)cc(O)c12 [Quercetin-3-galactoside, quercetin-3-O-galactoside]
- Relative fluorescence intensity [1, 2]: 0.70

Compound: O=c1c(O[C@@H]2O[C@H](CO)[C@@H](O)[C@H](O)[C@H]2O)c(-c2ccc(O)c(O)c2)oc2cc(O)cc(O)c12 [Quercetin-3-glucoside, quercetin-3-O-glucoside]
- sugar uptake-promoting activity (in words) ([1]; Test Example 3): as high as Example 4-1
- Relative fluorescence intensity [1, 2]: 2.26

Compound: C[C@@H]1O[C@@H](OC[C@H]2O[C@@H](Oc3c(-c4ccc(O)c(O)c4)oc4cc(O)cc(O)c4c3=O)[C@H](O)[C@@H](O)[C@@H]2O)[C@H](O)[C@H](O)[C@H]1O [Rutin, rutin]
- Relative fluorescence intensity [1, 2]: 0.91

Compound: insulin
- Relative fluorescence intensity ([1]; Test Example 1-2, positive control 10 nM, no addition = 1.00): 1.32
- Relative fluorescence intensity ([1]; Test Example 2, positive control 10 nM, no addition = 1.00): 1.25
- Relative fluorescence intensity ([1]; Test Example 3, positive control 10 nM, control = 1.00): 1.43
- Relative fluorescence intensity ([1]; Test Example 4, positive control 10 nM, control = 1.00): 1.62
- Relative fluorescence intensity ([1]; Test Example 4, positive control 100 nM, control = 1.00): 1.74
